Results: patent publication US11168095B2, “ASK1 inhibiting agents” (BIOGEN MA INC., priority 2017, dated 2021)
Several values for one entry are separate records, joined by “and”; a condition that tells them apart may be missing. Equal entries are not always repeated. Where two headings read alike, the source gives them in different places.

How the values were obtained:
[1] = amide bond, 14-membered ring, T3P/Et3N
[2] = target: ASK1 T838 auto phosphorylation in HEK-293T cells (Homo sapiens (Human), UniProt Q99683); assay: ASK1 (AUTO PHOS T838) assay, MSD format; type: cell-based; settings: HEK 293T cells transfected with ASK1-V5 full length plasmid, compounds 1 hr at 37° C.; read-out: IC50
GST-hASK1 = GST-hASK1 (Homo sapiens (Human), UniProt Q99683); assay: ASK1 TR-FRET assay; type: biochemical; settings: 5 nM GST-hASK1, 100 μM ATP, 2 μM STK Substrate 3
Method: The protein kinase activity of 5 nM GST-hASK1(Life Technologies PV4011) was assayed with 100 μM ATP and 2 μM of HTRF biotinylated STK Substrate 3 (CisBio Kit 62ST3PEJ), at ambient temperature in 25 mM Hepes, pH 7.5, 50 mM NaCl, 10 mM MgCl2, 0.02% Brij-35, 1 mM DTT, and 1% DMSO.
After a 10 minute pre-incubation, ASK1 protein kinase activity was initiated by addition of 10 μL of 300 μM ATP.

ASK1/MAP3K5 = ASK1/MAP3K5 (Homo sapiens (Human), UniProt Q99683); assay: ASK1/MAP3K5 assay by Reaction Biology Corp.; type: biochemical; settings: 20 μM myelin basic protein (MBP), 10 μM ATP
Method: ASK1/MAP3K5 was used as the protein kinase and 20 μM of myelin basic protein (MBP) and 10 μM ATP were used as the substrate.

[3] = 14-membered ring

Sequence of GST-hASK1 (Q99683 649-946): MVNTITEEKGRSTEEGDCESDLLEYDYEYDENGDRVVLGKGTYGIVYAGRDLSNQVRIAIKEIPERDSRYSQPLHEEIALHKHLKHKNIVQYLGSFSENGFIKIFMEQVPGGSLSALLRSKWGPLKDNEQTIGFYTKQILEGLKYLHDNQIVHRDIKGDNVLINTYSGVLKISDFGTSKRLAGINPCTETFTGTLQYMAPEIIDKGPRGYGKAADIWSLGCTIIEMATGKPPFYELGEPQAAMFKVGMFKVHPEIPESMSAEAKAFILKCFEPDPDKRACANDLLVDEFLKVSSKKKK
Sequence of ASK1 T838 auto phosphorylation in HEK-293T cells (Q99683 whole entry): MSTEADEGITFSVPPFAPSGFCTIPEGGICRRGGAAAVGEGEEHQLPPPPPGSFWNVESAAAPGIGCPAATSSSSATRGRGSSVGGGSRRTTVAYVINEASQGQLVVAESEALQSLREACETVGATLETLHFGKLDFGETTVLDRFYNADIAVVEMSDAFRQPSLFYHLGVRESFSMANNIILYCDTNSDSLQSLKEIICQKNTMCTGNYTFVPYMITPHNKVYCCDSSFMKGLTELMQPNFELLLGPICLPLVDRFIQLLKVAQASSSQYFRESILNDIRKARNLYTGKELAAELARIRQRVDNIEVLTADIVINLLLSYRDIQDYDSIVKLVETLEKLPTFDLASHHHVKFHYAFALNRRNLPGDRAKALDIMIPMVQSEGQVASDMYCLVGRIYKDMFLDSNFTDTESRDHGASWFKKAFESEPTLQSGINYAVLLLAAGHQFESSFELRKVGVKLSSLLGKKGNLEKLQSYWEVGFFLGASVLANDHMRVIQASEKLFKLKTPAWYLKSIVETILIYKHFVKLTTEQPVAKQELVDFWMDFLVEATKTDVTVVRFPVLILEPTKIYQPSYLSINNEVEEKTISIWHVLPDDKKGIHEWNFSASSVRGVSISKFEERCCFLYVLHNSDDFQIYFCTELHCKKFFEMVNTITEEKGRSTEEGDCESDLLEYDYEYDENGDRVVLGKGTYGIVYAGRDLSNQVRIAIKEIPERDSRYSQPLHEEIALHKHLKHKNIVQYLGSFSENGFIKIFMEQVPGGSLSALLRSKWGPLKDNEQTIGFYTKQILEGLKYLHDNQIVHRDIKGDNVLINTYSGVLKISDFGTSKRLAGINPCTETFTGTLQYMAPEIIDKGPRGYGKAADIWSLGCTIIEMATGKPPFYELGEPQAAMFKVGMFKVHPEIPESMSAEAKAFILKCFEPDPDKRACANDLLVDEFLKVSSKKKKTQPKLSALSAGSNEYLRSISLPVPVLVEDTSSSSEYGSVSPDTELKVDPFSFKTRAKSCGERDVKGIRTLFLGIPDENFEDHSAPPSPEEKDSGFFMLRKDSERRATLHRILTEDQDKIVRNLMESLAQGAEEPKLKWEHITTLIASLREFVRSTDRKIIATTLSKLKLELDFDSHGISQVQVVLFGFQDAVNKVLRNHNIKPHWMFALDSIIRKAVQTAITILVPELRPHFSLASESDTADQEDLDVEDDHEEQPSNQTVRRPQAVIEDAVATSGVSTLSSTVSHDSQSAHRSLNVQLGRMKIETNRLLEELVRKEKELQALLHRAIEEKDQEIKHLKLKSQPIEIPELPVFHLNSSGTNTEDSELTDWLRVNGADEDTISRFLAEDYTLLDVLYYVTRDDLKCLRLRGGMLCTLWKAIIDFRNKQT
Sequence of ASK1/MAP3K5 (Q99683 whole entry): as above

Structure (SMILES) | IC50 [2] [µM] | IC50 (GST-hASK1) [µM] | IC50 (ASK1/MAP3K5) [µM] | further results
O=C1Nc2cccc(n2)-c2nncn2CCCCOc2cc(Cl)c(F)cc21 |  |  |  | ring closure, isolated yield (from Nc1cccc(-c2nncn2CCCCOc2cc(Br)c(F)cc2C(=O)O)n1, amide bond, 14-membered ring, T3P/Et3N, Et3N/EtOAc, 110.0 °C, 0.05 h, 2 steps): 55%
CC1CCCOc2cc(Cl)ccc2C(=O)Nc2cccc(n2)-c2nncn21 (racemic) |  |  |  | ring closure, crude yield ([1]; from CC(CCCOc1cc(Br)ccc1C(=O)O)n1cnnc1-c1cccc(N)n1, EtOAc/Et3N, 50.0 °C, 12.0 h): 37%
CC1CCOc2cc(F)c(Cl)cc2C(=O)Nc2cccc(n2)-c2nncn2C1 (racemic) |  |  |  | ring closure, isolated yield (from CC(CCOc1cc(F)c(Br)cc1C(=O)O)Cn1cnnc1-c1cccc(N)n1, amide bond, 14-membered ring, T3P/Et3N, Et3N/EtOAc, 43.0 mM, 70.0 °C, 2.0 h): 23%
O=C1Nc2cccc(n2)-c2nncn2CCCCOc2cc(Cl)ccc21 |  |  |  | ring closure, isolated yield (from Nc1cccc(-c2nncn2CCCCOc2cc(Br)ccc2C(=O)O)n1, amide bond, 14-membered ring, T3P/Et3N, Et3N/EtOAc, 116.0 mM, 50.0 °C, 3.0 h): 27%
CC1CCCn2cnnc2-c2cccc(n2)NC(=O)c2cc(Cl)ccc2O1 (racemic) |  |  |  | ring closure, crude yield ([1]; from CC(CCCn1cnnc1-c1cccc(N)n1)Oc1ccc(Br)cc1C(=O)O, Et3N/EtOAc, 137.0 mM, 70.0 °C, 3.0 h): 57%
O=C1Nc2cccc(n2)-c2nncn2CCCCOc2cc(F)c(Cl)cc21 |  |  |  | ring closure, isolated yield (from Nc1cccc(-c2nncn2CCCCOc2cc(F)c(Br)cc2C(=O)O)n1, amide bond, 14-membered ring, T3P/Et3N, Et3N/EtOAc, 117.0 mM, 80.0 °C, 17.0 h): 35%
O=C1Nc2cccc(n2)-c2nncn2CCCCOc2ccc(-c3ccncc3)cc21 [Example 27, 5^5-(Pyridin-4-yl)-1^4H-6-oxa-3-aza-2(2,6)-pyridina-1(3,4)-triazola-5(1,2)-benzenacyclodecaphan-4-one] | < 1 | < 0.1 | < 0.1 | 
O=C1Nc2cccc(n2)-c2nncn2CCCCOc2ccc(N3CC(F)(F)C3)cc21 [Example 9, 5^5-(3,3-Difluoroazetidin-1-yl)-1^4H-6-oxa-3-aza-2(2,6)-pyridina-1(3,4)-triazola-5(1,2)-benzenacyclodecaphan-4-one] | < 1 | < 0.1 | < 0.1 | 
O=C1Nc2cccc(n2)-c2nncn2CC=CCOc2cc(C(F)(F)F)ccc21 |  |  |  | ring closure, isolated yield (from C=CCOc1cc(C(F)(F)F)ccc1C(=O)Nc1cccc(-c2nncn2CC=C)n1, rcm bond, 14-membered ring, Hoveyda-Grubbs II (10 mol%), DCE, 2.64 mM, 80.0 °C, 3.0 h): 41%
O=C1Nc2cccc(n2)-c2nncn2CCCCOc2ccc(N3CCC(F)(F)CC3)cc21 [Example 12, 5^5-(4,4-Difluoropiperidin-1-yl)-1^4H-6-oxa-3-aza-2(2,6)-pyridina-1(3,4)-triazola-5(1,2)-benzenacyclodecaphan-4-one] | < 1 | < 0.1 | < 0.1 | 
CC(C)(C)OC(=O)N1C(=O)c2ccc(C(F)(F)F)cc2OCC=CCn2cnnc2-c2cccc1n2 |  |  |  | ring closure, yield after HPLC ([3]; from C=CCOc1cc(C(F)(F)F)ccc1C(=O)N(C(=O)OC(C)(C)C)c1cccc(-c2nncn2CC=C)n1, rcm bond, Hoveyda-Grubbs I (20 mol%), toluene, 1.9 mM, 110.0 °C, 17.0 h): 9% and 13%
O=C1Nc2cccc(n2)-c2nncn2CCCCOc2ccc(Cl)cc21 |  |  |  | ring closure, isolated yield (from Nc1cccc(-c2nncn2CCCCOc2ccc(Br)cc2C(=O)O)n1, amide bond, 14-membered ring, T3P/Et3N, Et3N/EtOAc, 76.0 mM, 80.0 °C, 4.0 h): 41%
CC(C)(C)OC(=O)N1C(=O)c2cc(Br)c(F)cc2OCCC=CCn2cnnc2-c2cccc1n2 |  |  |  | ring closure, isolated yield (from C=CCCOc1cc(F)c(Br)cc1C(=O)N(C(=O)OC(C)(C)C)c1cccc(-c2nncn2CC=C)n1, rcm bond, 15-membered ring, Hoveyda-Grubbs I (20 mol%), toluene, 1.66 mM, 110.0 °C, 17.0 h): 31%
Cc1cn(-c2ccc3c(c2)C(=O)Nc2cccc(n2)-c2nncn2[C@@H](C)CCCO3)cn1 [Example 94, (S)-10-Methyl-5^5-(4-methyl-1H-imidazol-1-yl)-1^4H-6-oxa-3-aza-2(2,6)-pyridina-1(3,4)-triazola-5(1,2)-benzenacyclodecaphan-4-one] | < 1 | < 0.1 | < 0.1 | 
O=C1Nc2cccc(n2)-c2nncn2CCCCOc2ccc(-n3cnc(C4CC4)c3)cc21 [Example 22, 5^5-(4-Cyclopropyl-1H-imidazol-1-yl)-1^4H-6-oxa-3-aza-2(2,6)-pyridina-1(3,4)-triazola-5(1,2)-benzenacyclodecaphan-4-one] | < 1 | < 0.1 | < 0.1 | 
O=C1Nc2cccc(n2)-c2nncn2CCCCOc2cc(C(F)(F)F)c(Cl)cc21 |  |  |  | ring closure, yield after HPLC ([3]; from Nc1cccc(-c2nncn2CCCCOc2cc(C(F)(F)F)c(Br)cc2C(=O)O)n1, amide bond, T3P/Et3N, Et3N/EtOAc, 18.0 mM, 50.0 °C, 4.0 h): 40%
C[C@H]1CCCOc2ccc(-c3cnn(C)c3)cc2C(=O)Nc2cccc(n2)-c2nncn21 [Example 96, (S)-10-Methyl-5^5-(1-methyl-1H-pyrazol-4-yl)-1^4H-6-oxa-3-aza-2(2,6)-pyridina-1(3,4)-triazola-5(1,2)-benzenacyclodecaphan-4-one] | < 1 | < 0.1 | < 0.1 | 
O=C1Nc2cccc(n2)-c2nncn2CCCCOc2ccc(C3CCOCC3)cc21 [Example 17, 5^5-(Tetrahydro-2H-pyran-4-yl)-1^4H-6-oxa-3-aza-2(2,6)-pyridina-1(3,4)-triazola-5(1,2)-benzenacyclodecaphan-4-one] | < 1 | < 0.1 | < 0.1 | 
